Measurements published in patent US7122353B2, “Targeted carrier fusions for delivery of chemotherapeutic agents” (Wisconsin Alumni Research Foundation, priority 2003, dated 2006).
Structures can show the parent of a compound that is named as a salt. Numbered stars: 1 amine (or outer) side, 2 acyl side, 3 side chain; on linkers, the order of the positions; unused ones are H or OH. Bridge positions count the residues as written; N and C are the ends. Square brackets hold non-standard residues; d marks the D form. Peptide text beside a SMILES is read from it. I, II: the chains in the order shown. Actinocin(9to1) = Cc1c2oc3c(C)ccc(C(=O)[*:1])c3nc-2c(C(=O)[*:2])c(N)c1=O; NMeV = CN[C@H](C(=O)O)C(C)C; Sar = CNCC(=O)O

Legend:
[1] = cited from earlier work
prostates cancers = conditions: mouse, in vivo; cited from earlier work
[2] = tested on: cancer cell lines (WM115, KS1617); assay: Fluorescence imaging of binding of IC3-OSu-labeled carrier proteins to cancer cells; type: cell-based; conditions: 100 μl of 0.1 mg/ml labeled protein, about 10 min, room temperature, washed 3 times with PBS
Description: WM115 (high-level expression of αvβ3 integrin) and MCF7 (low level expression of αvβ3 integrin, about 10% of WM115) cell lines were grown in α MEM medium enriched with 10% fetal bovine serum (FBS) and 60 μg/ml of penicillin and 100 μg/ml of streptomycin. KS1617 cell line (high-level expression of CD13) was grown in RPMI1640 medium also enriched with 10% FBS and 60 μg/ml of penicillin and 100 μg/ml of streptomycin. The cell cultures were passed to fresh medium every 2–3 days. For fluorescent imaging, the cells were grown in 4-well culture slides to about 70% confluence before use.
To facilitate detection, the recombinant CTP-containing carrier proteins were labeled with Dojindo IC3-Osu, which reacts with lysine residues of the protein, according to the recommended protocols by the manufacturer (Dojindo, Gaithersburg, Md.) (FIG. 5). About 0.5 mg/ml protein was reacted with 3-fold excess of the fluorescent dye in dark at room temperature for 1 hr, and the extra dye was removed using Bio-Rad Econo-Pac desalting column. The labeling efficiency was measured using UV-vis spectroscopy. On average, about 25–35% of protein molecules were labeled.
The binding specificity between CTP-containing carrier proteins and various cancer cell lines was evaluated with both the native carrier proteins and normal cell lines as negative controls. […]

For Cc1c2oc3c(C)ccc(C(=O)N[C@@H]4C(=O)N[C@H](C(C)C)C(=O)N5CCC[C@H]5C(=O)N(C)CC(=O)N(C)[C@@H](C(C)C)C(=O)O[C@@H]4C)c3nc-2c(C(=O)N[C@@H]2C(=O)N[C@H](C(C)C)C(=O)N3CCC[C@H]3C(=O)N(C)CC(=O)N(C)[C@@H](C(C)C)C(=O)O[C@@H]2C)c(N)c1=O [Actinomycin D] (I: T[dV]P[Sar][NMeV] / II: T[dV]P[Sar][NMeV]; ester I:1-I:C, II:1-II:C; linker I:N-II:N via Actinocin(9to1)), the “part of the dose excreted intact into the bile” value ([1]; in vivo) is listed as “Half of the dose”.

For COc1cccc2c1C(=O)c1c(O)c3c(c(O)c1C2=O)C[C@@](O)(C(C)=O)C[C@@H]3O[C@H]1C[C@H](N)[C@H](O)[C@H](C)O1 [Daunorubicin, 5,12-Naphthacenedione, (8S-cis)-8-acetyl-10-((3-amino-2,3,6-trideoxy-a-L-lyxo-hexanopyranosyl)oxy)-7,8,9,10-tetrahydro-6,8,11-trihydroxy-10-methoxy-, hydrochloride], the “secreted into the bile” value ([1]; in vivo) is listed as “about 40%”.

For CC[C@]1(O)C[C@@H]2CN(CCc3c([nH]c4ccccc34)[C@@](C(=O)OC)(c3cc4c(cc3OC)N(C)[C@H]3[C@@](O)(C(=O)OC)[C@H](OC(C)=O)[C@]5(CC)C=CCN6CC[C@]43[C@@H]65)C2)C1 [Vinblastine], the “plasma half-life after distribution (first value)” value ([1]; after intravenous injection) is given as “approximately 1 hours” and the “plasma half-life after distribution (second value)” value ([1]; after intravenous injection) is given as about 20 h.

For “SMSIARL [cancer-targeting peptide for prostate cancer]”, the “targeting to prostates cancers relative to other organs” value (prostates cancers) is given as 10–15 times.

B1: native NcsA: His-tagged native neocarzinostatin apo-protein encoded by the ncsA gene of Streptomyces carzinostaticus; negative control (protein)
chain: AAPTATVTPSSGLSDGTVVKVAGAGLQAGTAYDVGQCAWVDTGVLACNPADFSSVTADANGSASTSLTVRRSFEGFLFDGTRWGTVDCTTAACQVGLSDAAGNGPEGVAISFN
modifications: left off: small tags and cut ends
notes: His-tagged native neocarzinostatin apo-protein encoded by the ncsA gene of Streptomyces carzinostaticus; negative control
In the case of B1, the “fluorescence detected on cells after incubation with labeled protein” value [2] is reported as “no significant fluorescence”.

B2: native CagA: His-tagged native C-1027 apo-protein encoded by the cagA gene of Streptomyces globisporus; negative control (protein)
chain: APAFSVSPASGLSDGQSVSVSVSGAAAGETYYIAQCAPVGGQDACNPATATSFTTDASGAASFSFVVRKSYTGSTPEGTPVGSVDCATAACNLGAGNSGLDLGHVALTFG
modifications: left off: small tags and cut ends
notes: His-tagged native C-1027 apo-protein encoded by the cagA gene of Streptomyces globisporus; negative control
For B2, the “fluorescence detected on cells after incubation with labeled protein” value [2] was “no significant fluorescence”.
